According to patent US6426352B1, “Sulfonamide inhibitors of farnesyl-protein transferase” (Schering Corporation, priority 1997, dated 2002):

Assays:
[1] = target: T1, partially purified rat brain farnesyl protein transferase (FPT) (Rattus norvegicus, UniProt Q02293+Q04631); assay: In vitro enzyme assay: inhibition of Ras-CVLS farnesylation by farnesyl protein transferase (H-ras FPT); format: biochemical
T1 construct: partially purified rat brain farnesyl protein transferase (FPT); from tissue; host or cells: rat brain
Method: 1. In vitro enzyme assays: FPT IC50 (inhibition of farnesyl protein transferqase, in vitro enzyme assay) are determined by the methods disclosed in […] or WO 95/10516.

[2] = test system: Ras processing in COS cells; assay: Cell-based assay: COS cells activity, inhibition of Ras processing
Method: 2. Cell-based assay. COS IC50 values refer to the COS cells activity inhibition of Ras processing, are determined by the methods disclosed in […] or WO 95/10516.

Row | Compound | IC50 [1] [nM] | melting point [°C] | IC50 [2] [nM]
1 | C=CS(=O)(=O)N1CCC(C2c3ncc(Br)cc3CCc3cc(Cl)cc(Br)c32)CC1 (single isomer, unassigned; (+)) [Example 11, (+)-4-(3,10-Dibromo-8-chloro-11-dihydro-5H-benzo[5,6]cyclohepta[1,2-b]pyridin-11-yl)-1-(vinylsulfonyl)pipiridine] | 32 | – | –
2 | CCS(=O)(=O)N1CCC(C2c3ncc(Br)cc3CCc3cc(Cl)cc(Br)c32)CC1 (single isomer, unassigned; (+)) [Example 5, (+)-4-(3,10-Dibromo-8-chloro-11-dihydro-5H-benzo[5,6]cyclohepta[1,2-b]pyridin-11-yl)-1-(ethylsulfonyl)pipiridine] | 15.4 | 202 to 203 | –
3 | CN(C)S(=O)(=O)N1CCC(C2c3ncc(Br)cc3CCc3cc(Cl)cc(Cl)c32)CC1 (single isomer, unassigned; (+)) [Example 2, (+)-4-(3-Bromo-8,10-dichloro-6,11-dihydro-5H-benzo[5,6,]cyclohepta[1,2-b]pyridin-11-yl)-N-N-dimethyl-1-piperidinesulfonamide] | 164 | 202 to 203 | –
4 | O=S(=O)(c1ccccc1)N1CCC([C@H]2c3ncc(Br)cc3CCc3cc(Cl)cc(Br)c32)CC1 [Example 12, (+)-4-(3,10-Dibromo-8-chloro-6,11-dihydro-5H-benzo[5,6]cyclohepta[1,2-b]pyridin-11(R)-yl)-1-(phenylsulfonyl)pipiridine] | 179 | – | –
5 | O=S(=O)(c1ccc(-c2ccon2)s1)N1CCC([C@H]2c3ncc(Br)cc3CCc3cc(Cl)cc(Br)c32)CC1 [Example 14, (+)-4-(3,10-Dibromo-8-chloro-6,11-dihydro-5H-benzo[5,6]cyclohepta[1,2-b]pyridin-11(R)-yl)-1-[(5-(3-isoxazolyl)-2-thienyl]sulfonyl]pipiridine] | 276 | – | –
6 | O=S(=O)(CC(F)(F)F)N1CCC(C2c3ncc(Br)cc3CCc3cc(Cl)cc(Br)c32)CC1 (single isomer, unassigned; (+)) [Example 10, (+)-4-(3,10-Dibromo-8-chloro-11-dihydro-5H-benzo[5,6]cyclohepta[1,2-b]pyridin-11-yl)-1-(trifluoroethylsulfonyl)pipiridine] | 89 | 174 to 175 | –
7 | CCCCS(=O)(=O)N1CCC(C2c3ncc(Br)cc3CCc3cc(Cl)cc(Br)c32)CC1 (single isomer, unassigned; (+)) [Example 8, (+)-4-(3,10-Dibromo-8-chloro-11-dihydro-5H-benzo[5,6]cyclohepta[1,2-b]pyridin-11-yl)-1-(butylsulfonyl)pipiridine] | 320 | 73 to 74 | –
8 | CS(=O)(=O)N1CCC(C2c3ncc(Br)cc3CCc3cc(Cl)cc(Cl)c32)CC1 (single isomer, unassigned; (+)) [Example 1, (+)-4-(3-Bromo-8,10-dichloro-6,11-dihydro-5H-benzo[5,6]cyclohepta[1,2-b]pyridin-11-yl)-1-(methylsulfonyl)pipiridine] | 8 | 160 to 163 | 420
9 | O=S(=O)(N1CCC(C2c3ncc(Br)cc3CCc3cc(Cl)cc(Br)c32)CC1)C(F)(F)F (single isomer, unassigned; (+)) [Example 9, (+)-4-(3,10-Dibromo-8-chloro-11-dihydro-5H-benzo[5,6]cyclohepta[1,2-b]pyridin-11-yl)-1-(trifluoromethylsulfonyl)pipiridine] | 34 | 111 to 112 | –
10 | CC(C)S(=O)(=O)N1CCC(C2c3ncc(Br)cc3CCc3cc(Cl)cc(Br)c32)CC1 (single isomer, unassigned; (+)) [Example 7, (+)-4-(3,10-Dibromo-8-chloro-11-dihydro-5H-benzo[5,6]cyclohepta[1,2-b]pyridin-11-yl)-1-(isopropylsulfonyl)pipiridine] | 110 | 203 to 205 | –
11 | Cn1cnc(S(=O)(=O)N2CCC([C@H]3c4ncc(Br)cc4CCc4cc(Cl)cc(Br)c43)CC2)c1 [Example 13, (+)-4-(3,10-Dibromo-8-chloro-6,11-dihydro-5H-benzo[5,6]cyclohepta[1,2-b]pyridin-11(R)-yl)-1-[(1-methyl-1H-imidazol-4-yl)sulfonyl]pipiridine] | 85 | – | –
12 | CS(=O)(=O)N1CCC(C2c3ncc(Br)cc3CCc3cc(Cl)cc(Br)c32)CC1 (single isomer, unassigned; (+)) [Example 4, (+)-4-(3,10-Dibromo-8-chloro-11-dihydro-5H-benzo[5,6]cyclohepta[1,2-b]pyridin-11-yl)-1-(methylsulfonyl)pipiridine] | 7 | 216 to 217 | 15
13 | NS(=O)(=O)N1CCC(C2c3ncc(Br)cc3CCc3cc(Cl)cc(Cl)c32)CC1 (single isomer, unassigned; (+)) [Example 3, (+)-4-(3-Bromo-8,10-dichloro-6,11-dihydro-5H-benzo[5,6]cyclohepta[1,2-b]pyridin-11-yl)-1-(aminosulfonyl)piperidine] | 26 | 133 to 134 | –
14 | CCCS(=O)(=O)N1CCC(C2c3ncc(Br)cc3CCc3cc(Cl)cc(Br)c32)CC1 (single isomer, unassigned; (+)) [Example 6, (+)-4-(3,10-Dibromo-8-chloro-11-dihydro-5H-benzo[5,6]cyclohepta[1,2-b]pyridin-11-yl)-1-(propylsulfonyl)pipiridine] | 32 | 97 to 98 | –
